# Measured values reported in patent US10087229B2, “Peptide compound” (TAKEDA PHARMACEUTICAL COMPANY LIMITED, priority 2013, dated 2018).
# Square brackets hold non-standard residues; d marks the D form. Peptide text beside a SMILES is read from it. * marks the point of attachment. Tyr(Nα-amidino) = N=C(N)N[C@@H](Cc1ccc(O)cc1)C(=O)*; αMeF = C[C@](N)(Cc1ccccc1)C(=O)O; Aib = CC(C)(N)C(=O)O
# Test system: male C57BL/6J mouse
# Assay: 2-days continuous subcutaneous administration test (feeding suppressive activity)
# Type: in vivo
# Settings: 10 nmol/kg/day, subcutaneous Alzet pump, 2-days cumulative food consumption, control (solvent alone) = 0%
# Method: 2-Days Continuous Subcutaneous Administration Test
# The feeding suppressive activity of a test compound was examined by the method described below.
# The test compound was dissolved in a solvent (50% DMSO) so that sustained release would occur at 10 nmol/kg/day, and the solution was filled in the Alzet Pump (DURECT Corporation, model: 1003D). The pump thus filled with the solution to be administered was immersed in physiological saline for priming, and then used. The pump was embedded by the following method. Each male C57BL/6J mouse at 8-9 weeks of age (20-26° C., allowed to take food and water ad libitum; 12-hour bright-12-hour dark cycle) was anesthetized; the skin in the upper back thereof was incised, and the above-mentioned pump was embedded subcutaneously; the incision was sutured. After weighing, this mouse was returned to the rearing cage (reared alone), and given previously weighed food; food consumption as of 2 days after the start of administration was measured. The food consumption was calculated by subtracting the amount of remaining food from the weight of the food given on the day of the start of administration. When the food consumption of a control group receiving administration of the solvent alone was regarded as a suppression rate of 0%, the feeding suppressive activity of each test compound was evaluated on the basis of 2-days cumulative food consumption after the start of administration. The food intake suppression rate (%) of the test compound was defined as (Food consumption of the control group−Food consumption of the test compound-administered group)/Food consumption of the control group×100.
row,Structure (SMILES),Food intake suppression (%)
1,CC(C)C[C@H](NC(=O)[C@H](CC(C)C)NC(=O)[C@H](Cc1c[nH]c2ccccc12)NC(=O)[C@H](CCCCN)NC(=O)[C@@H](NC(=O)[C@H](Cc1ccccc1)NC(=O)[C@H](CCC(=O)O)NC(=O)[C@H](C)NC(=O)[C@H](CCC(N)=O)NC(=O)[C@H](C)NC(=O)[C@H](CCC(N)=O)NC(=O)[C@H](CCCCN)NC(=O)[C@H](CC(=O)O)NC(=O)[C@H](CC(C)C)NC(=O)C(C)(C)NC(=O)[C@H](Cc1ccccc1)NC(=O)C(C)(C)NC(=O)[C@H](Cc1ccc(O)cc1)NC(=O)[C@H](CC(=O)O)NC(=O)[C@H](CO)NC(=O)[C@@H](NC(=O)[C@](C)(Cc1ccccc1)NC(=O)[C@@H](NC(=O)CNC(=O)[C@H](CCC(=O)O)NC(=O)C(C)(C)NC(=O)[C@@H](N)Cc1ccc(O)cc1)[C@@H](C)O)[C@@H](C)O)C(C)C)C(=O)N[C@@H](CCCCN)C(=O)NCC(=O)NCC(=O)N1CCC[C@H]1C(=O)N[C@@H](CO)C(=O)N[C@@H](CO)C(=O)NCC(=O)N[C@@H](C)C(=O)N1CCC[C@H]1C(=O)N1CCC[C@H]1C(=O)N1CCC[C@H]1C(=O)N[C@@H](CO)C(=O)N[C@@H](CCCCN)C(N)=O [Example 11] (H-Y[Aib]EGT[αMeF]TSDY[Aib]F[Aib]LDKQAQAEFVKWLLKGGPSSGAPPPSK-NH2),49.99
2,CC[C@H](C)[C@H](NC(=O)C(C)(C)NC(=O)[C@H](Cc1ccc(O)cc1)NC(=O)[C@H](CC(=O)O)NC(=O)[C@H](CO)NC(=O)[C@@H](NC(=O)[C@](C)(Cc1ccccc1)NC(=O)[C@@H](NC(=O)CNC(=O)[C@H](CCC(=O)O)NC(=O)C(C)(C)NC(=O)[C@@H](N)Cc1ccc(O)cc1)[C@@H](C)O)[C@@H](C)O)C(=O)N[C@@](C)(Cc1ccccc1)C(=O)N[C@@H](CC(C)C)C(=O)N[C@@H](CC(=O)O)C(=O)N[C@@H](CCCCN)C(=O)N[C@@H](CCC(N)=O)C(=O)N[C@@H](C)C(=O)N[C@@H](CCC(N)=O)C(=O)N[C@@H](C)C(=O)N[C@@H](CCC(=O)O)C(=O)N[C@@H](Cc1ccccc1)C(=O)N[C@H](C(=O)N[C@@H](CCCCN)C(=O)N[C@@H](Cc1c[nH]c2ccccc12)C(=O)N[C@@H](CC(C)C)C(=O)N[C@@H](CC(C)C)C(=O)N[C@@H](CCCCN)C(=O)NCC(=O)NCC(=O)N1CCC[C@H]1C(=O)N[C@@H](CO)C(=O)N[C@@H](CO)C(=O)NCC(=O)N[C@@H](C)C(=O)N1CCC[C@H]1C(=O)N1CCC[C@H]1C(=O)N1CCC[C@H]1C(=O)N[C@@H](CO)C(=O)N[C@@H](CCCCN)C(N)=O)C(C)C [Example 13] (H-Y[Aib]EGT[αMeF]TSDY[Aib]I[αMeF]LDKQAQAEFVKWLLKGGPSSGAPPPSK-NH2),57.12
3,CC[C@H](C)[C@H](NC(=O)[C@H](C)NC(=O)[C@H](Cc1ccc(O)cc1)NC(=O)[C@H](CC(=O)O)NC(=O)[C@H](CO)NC(=O)[C@@H](NC(=O)[C@](C)(Cc1ccccc1)NC(=O)[C@@H](NC(=O)CNC(=O)[C@H](CCC(=O)O)NC(=O)C(C)(C)NC(=O)[C@@H](N)Cc1ccc(O)cc1)[C@@H](C)O)[C@@H](C)O)C(=O)NC(C)(C)C(=O)N[C@@H](CC(C)C)C(=O)N[C@@H](CC(=O)O)C(=O)N[C@@H](CCCCN)C(=O)N[C@@H](CCC(N)=O)C(=O)N[C@@H](C)C(=O)N[C@@H](CCC(N)=O)C(=O)N[C@@H](CO)C(=O)N[C@@H](CCC(=O)O)C(=O)N[C@@H](Cc1ccccc1)C(=O)N[C@H](C(=O)N[C@@H](CCCCN)C(=O)N[C@@H](Cc1c[nH]c2ccccc12)C(=O)N[C@@H](CC(C)C)C(=O)N[C@@H](CC(C)C)C(=O)N[C@@H](CCCCN)C(=O)NCC(=O)NCC(=O)N1CCC[C@H]1C(=O)N[C@@H](CO)C(=O)N[C@@H](CO)C(=O)NCC(=O)N[C@@H](C)C(=O)N1CCC[C@H]1C(=O)N1CCC[C@H]1C(=O)N1CCC[C@H]1C(=O)N[C@@H](CO)C(=O)N[C@@H](CCCCN)C(N)=O)C(C)C [Example 3] (H-Y[Aib]EGT[αMeF]TSDYAI[Aib]LDKQAQSEFVKWLLKGGPSSGAPPPSK-NH2),46.49
4,CC[C@H](C)[C@H](NC(=O)[C@H](C)NC(=O)[C@H](Cc1ccc(O)cc1)NC(=O)[C@H](CC(=O)O)NC(=O)[C@H](CO)NC(=O)[C@@H](NC(=O)[C@](C)(Cc1ccccc1)NC(=O)[C@@H](NC(=O)CNC(=O)[C@H](CCC(=O)O)NC(=O)C(C)(C)NC(=O)[C@@H](N)Cc1ccc(O)cc1)[C@@H](C)O)[C@@H](C)O)C(=O)NC(C)(C)C(=O)N[C@@H](CC(C)C)C(=O)N[C@@H](CC(=O)O)C(=O)N[C@@H](CCCCN)C(=O)N[C@@H](CCC(N)=O)C(=O)N[C@@H](C)C(=O)N[C@@H](CCC(N)=O)C(=O)N[C@@H](C)C(=O)N[C@@H](CCC(=O)O)C(=O)N[C@@H](Cc1ccccc1)C(=O)N[C@H](C(=O)N[C@@H](CCCCN)C(=O)N[C@@H](Cc1c[nH]c2ccccc12)C(=O)N[C@@H](CC(C)C)C(=O)N[C@@H](CC(C)C)C(=O)N[C@@H](CCCCN)C(=O)NCC(=O)NCC(=O)N1CCC[C@H]1C(=O)N[C@@H](CO)C(=O)N[C@@H](CO)C(=O)NCC(=O)N[C@@H](C)C(=O)N1CCC[C@H]1C(=O)N1CCC[C@H]1C(=O)N1CCC[C@H]1C(=O)N[C@@H](CO)C(N)=O)C(C)C [Example 5] (H-Y[Aib]EGT[αMeF]TSDYAI[Aib]LDKQAQAEFVKWLLKGGPSSGAPPPS-NH2),60.99
5,CC[C@H](C)[C@H](NC(=O)C(C)(C)NC(=O)[C@H](Cc1ccc(O)cc1)NC(=O)[C@H](CC(=O)O)NC(=O)[C@H](CO)NC(=O)[C@@H](NC(=O)[C@](C)(Cc1ccccc1)NC(=O)[C@@H](NC(=O)CNC(=O)[C@H](CCC(=O)O)NC(=O)C(C)(C)NC(=O)[C@@H](N)Cc1ccc(O)cc1)[C@@H](C)O)[C@@H](C)O)C(=O)NC(C)(C)C(=O)N[C@@H](CC(C)C)C(=O)N[C@@H](CC(=O)O)C(=O)N[C@@H](CCCCN)C(=O)N[C@@H](CCC(N)=O)C(=O)N[C@@H](C)C(=O)N[C@@H](CCC(N)=O)C(=O)N[C@@H](CO)C(=O)N[C@@H](CCC(=O)O)C(=O)N[C@@H](Cc1ccccc1)C(=O)N[C@H](C(=O)N[C@@H](CCCCN)C(=O)N[C@@H](Cc1c[nH]c2ccccc12)C(=O)N[C@@H](CC(C)C)C(=O)N[C@@H](CC(C)C)C(=O)N[C@@H](CCCCN)C(=O)NCC(=O)NCC(=O)N1CCC[C@H]1C(=O)N[C@@H](CO)C(=O)N[C@@H](CO)C(=O)NCC(=O)N[C@@H](C)C(=O)N1CCC[C@H]1C(=O)N1CCC[C@H]1C(=O)N1CCC[C@H]1C(=O)N[C@@H](CO)C(=O)N[C@@H](CCCCN)C(N)=O)C(C)C [Example 4] (H-Y[Aib]EGT[αMeF]TSDY[Aib]I[Aib]LDKQAQSEFVKWLLKGGPSSGAPPPSK-NH2),57.01
6,CC[C@H](C)[C@H](NC(=O)C(C)(C)NC(=O)[C@H](Cc1ccc(O)cc1)NC(=O)[C@H](CC(=O)O)NC(=O)[C@H](CO)NC(=O)[C@@H](NC(=O)[C@](C)(Cc1ccccc1)NC(=O)[C@@H](NC(=O)CNC(=O)[C@H](CCC(=O)O)NC(=O)C(C)(C)NC(=O)[C@H](Cc1ccc(O)cc1)NC(=N)N)[C@@H](C)O)[C@@H](C)O)C(=O)NC(C)(C)C(=O)N[C@@H](CC(C)C)C(=O)N[C@@H](CC(=O)O)C(=O)N[C@@H](CCCCN)C(=O)N[C@@H](CCC(N)=O)C(=O)N[C@@H](C)C(=O)N[C@@H](CCC(N)=O)C(=O)N[C@@H](C)C(=O)N[C@@H](CCC(=O)O)C(=O)N[C@@H](Cc1ccccc1)C(=O)N[C@H](C(=O)N[C@@H](CCCCN)C(=O)N[C@@H](Cc1c[nH]c2ccccc12)C(=O)N[C@@H](CC(C)C)C(=O)N[C@@H](CC(C)C)C(=O)N[C@@H](CCCCN)C(=O)NCC(=O)NCC(=O)N1CCC[C@H]1C(=O)N[C@@H](CO)C(=O)N[C@@H](CO)C(=O)NCC(=O)N[C@@H](C)C(=O)N1CCC[C@H]1C(=O)N1CCC[C@H]1C(=O)N1CCC[C@H]1C(=O)N[C@@H](CO)C(=O)N[C@@H](CCCCN)C(N)=O)C(C)C [Example 22] ({Tyr(Nα-amidino)}-[Aib]EGT[αMeF]TSDY[Aib]I[Aib]LDKQAQAEFVKWLLKGGPSSGAPPPSK-NH2),35.51
7,CC(C)C[C@H](NC(=O)[C@H](CC(C)C)NC(=O)[C@H](Cc1c[nH]c2ccccc12)NC(=O)[C@H](CCCCN)NC(=O)[C@@H](NC(=O)[C@H](Cc1ccccc1)NC(=O)[C@H](CCC(=O)O)NC(=O)[C@H](C)NC(=O)[C@H](CCC(N)=O)NC(=O)[C@H](C)NC(=O)[C@H](CCC(N)=O)NC(=O)[C@H](CCCCN)NC(=O)[C@H](CC(=O)O)NC(=O)[C@H](CC(C)C)NC(=O)C(C)(C)NC(=O)[C@H](C)NC(=O)C(C)(C)NC(=O)[C@H](Cc1ccc(O)cc1)NC(=O)[C@H](CC(=O)O)NC(=O)[C@H](CO)NC(=O)[C@@H](NC(=O)[C@](C)(Cc1ccccc1)NC(=O)[C@@H](NC(=O)CNC(=O)[C@H](CCC(=O)O)NC(=O)C(C)(C)NC(=O)[C@@H](N)Cc1ccc(O)cc1)[C@@H](C)O)[C@@H](C)O)C(C)C)C(=O)N[C@@H](CCCCN)C(=O)NCC(=O)NCC(=O)N1CCC[C@H]1C(=O)N[C@@H](CO)C(=O)N[C@@H](CO)C(=O)NCC(=O)N[C@@H](C)C(=O)N1CCC[C@H]1C(=O)N1CCC[C@H]1C(=O)N1CCC[C@H]1C(=O)N[C@@H](CO)C(=O)N[C@@H](CCCCN)C(N)=O [Example 10] (H-Y[Aib]EGT[αMeF]TSDY[Aib]A[Aib]LDKQAQAEFVKWLLKGGPSSGAPPPSK-NH2),62.04
